The results in this text go back to ChEMBL document CHEMBL3875159, “High-affinity small molecular blockers of mixed lineage leukemia 1 (MLL1)-WDR5 interaction inhibit MLL1 complex H3K4 methyltransferase activity” (Eur J Med Chem, 2016).

Usually IC50 stands for the concentration that gives 50% inhibition. Usually Kd stands for the constant that tells how readily two partners part at equilibrium.

The nature of assay [1]: Antiproliferative activity against human MV4-11 cells harboring MLL-AF4 fusion protein after 72 hrs by CCK8 assay. Format: functional, cell-based. The following applies: MV4-11, 72 h. In general terms: Tetrazolium assays rely on reduction of a dye to a coloured formazan, in cell work by metabolically active cells.
For assay [2], the target named is T1, WD repeat-containing protein 5 (Homo sapiens, UniProt P61964). Description: Inhibition of 10mer-Thr-FAM probe binding to human WDR5 after 2 hrs by fluorescence polarization assay. On the technique in general: In fluorescence polarisation assays a small probe gives low polarisation when free and higher when bound to something large.
Assay [3] concerns the target T1, WD repeat-containing protein 5. The experiment in a line: Binding affinity to human WDR5 by isothermal titration calorimetry. In general terms: ITC needs no label: the signal is the heat of the interaction.
Assay [4] addresses MLL1/ASH2L/RBBP5/WDR5 complex (Homo sapiens, UniProt P61964+Q03164+Q15291+Q9UBL3). Description: Inhibition of recombinant MLL1/ASH2L/RBBP5/WDR5 complex histone methyltransferase activity (unknown origin) by AlphaScreen assay. Type of assay: protein-complex assay.

Some results are limits rather than exact numbers.

On to `Cc1c(F)c(N)cc(C(=O)Nc2cc(-c3ccc(NC(=O)c4ccccc4)cc3)ccc2N2CCN(C)CC2)c1Cl`, for which the IC50 in assay [1] came to 5.4 µM; in assay [2], 422 nM.
The matching figures for `Cc1c(F)c(N)cc(C(=O)Nc2cc(-c3ccc(NC(=O)CNC(=O)OC(C)(C)C)cc3)ccc2N2CCN(C)CC2)c1Cl`: 4.1 µM and 1550 nM.
The matching figures for `Cc1c(F)c(N)cc(C(=O)Nc2cc(-c3ccc(NC(=O)C(C)C)cc3)ccc2N2CCN(C)CC2)c1Cl`: 4.5 µM and 95.6 nM.
As to `Cc1c(F)ccc(C(=O)Nc2cc([N+](=O)[O-])ccc2N2CCN(Cc3ccccc3)CC2)c1Cl`, the IC50 in assay [2] is greater than 20000 nM.
With `Cc1c(F)c(N)cc(C(=O)Nc2cc(-c3ccc(NC(=O)C(C)N)cc3)ccc2N2CCN(C)CC2)c1Cl` (stereo not drawn), the IC50 in assay [1] turned out to be 11.1 µM; in assay [2] it was 15 nM.
Take `CN1CCN(c2ccc(-c3ccc([N+](=O)[O-])cc3)cc2NC(=O)c2cccc([N+](=O)[O-])c2)CC1`: in assay [2], the IC50 came to 285 nM.
In assay [2], `COc1ccc(N2CCN(c3ccc([N+](=O)[O-])cc3NC(=O)c3ccc(F)c(C)c3Cl)CC2)cc1` came in with a concentration for half-maximal inhibition (IC50) greater than 20000 nM.
`CN1CCN(c2ccc(-c3ccc(N)cc3)cc2NC(=O)c2ccc(F)c(N)c2)CC1`: in assay [2], the half-maximal inhibitory concentration (IC50) is 13600 nM.
Same read-out and setting: the result for `CN1CCN(c2ccc(-c3ccncc3)cc2NC(=O)c2ccc(F)c([N+](=O)[O-])c2)CC1` reads 198 nM.
Consider `Cc1c(F)c(N)cc(C(=O)Nc2cc(-c3ccc(NC(=O)C(C)NC(=O)OC(C)(C)C)cc3)ccc2N2CCN(C)CC2)c1Cl` (stereo not drawn), for which the IC50 in assay [1] was 4.3 µM; in assay [2], 77.9 nM.
In the same order, the values of `CC(=O)Nc1ccc(-c2ccc(N3CCN(C)CC3)c(NC(=O)c3cc(N)c(F)c(C)c3Cl)c2)cc1` are 12.5 µM and 70.1 nM.
The matching figures for `Cc1c(F)c(N)cc(C(=O)Nc2cc(-c3ccc(NC(=O)CCNC(=O)OC(C)(C)C)cc3)ccc2N2CCN(C)CC2)c1Cl`: 4.6 µM and 102 nM.
Take `Cc1c(F)ccc(C(=O)Nc2cc([N+](=O)[O-])ccc2N2CCN(c3ccc(F)cc3)CC2)c1Cl`: the concentration for half-maximal inhibition (IC50) in assay [2] was greater than 20000 nM.
Same read-out and setting: the result for `Cc1c(F)ccc(C(=O)Nc2cc([N+](=O)[O-])ccc2NCCN)c1Cl` reads greater than 20000 nM.
In the case of `Cc1c(F)c(N)cc(C(=O)Nc2cc(-c3ccc(NC(=O)C4CC4)cc3)ccc2N2CCN(C)CC2)c1Cl`, the IC50 in assay [1] stood at 4.8 µM; in assay [2], 75.8 nM.
The matching figures for `Cc1c(F)c(N)cc(C(=O)Nc2cc(-c3ccc(NC(=O)CCCNC(=O)OC(C)(C)C)cc3)ccc2N2CCN(C)CC2)c1Cl`: 4.8 µM and 80.4 nM.
In the case of `Cc1c(F)ccc(C(=O)Nc2cc([N+](=O)[O-])ccc2NCCCn2ccnc2)c1Cl`, the IC50 in assay [2] was greater than 20000 nM.
Same read-out and setting: next, `Cc1c(F)ccc(C(=O)Nc2cc([N+](=O)[O-])ccc2NCCN2CCCC2)c1Cl`: greater than 20000 nM; `Cc1c(F)c([N+](=O)[O-])cc(C(=O)Nc2cc(-c3ccc([N+](=O)[O-])cc3)ccc2N2CCN(C)CC2)c1Cl`: 285 nM.
Take `Cc1c(F)c(N)cc(C(=O)Nc2cc(-c3ccc(NC(=O)C4CCNCC4)cc3)ccc2N2CCN(C)CC2)c1Cl`: the IC50 was 9.2 µM in assay [1] and 300 nM in assay [4]. The same molecule registered a Kd in assay [3] of 7.5 nM.
For the molecule `CCC(=O)Nc1ccc(-c2ccc(N3CCN(C)CC3)c(NC(=O)c3cc(N)c(F)c(C)c3Cl)c2)cc1`, the values for the IC50 in assay [1] and in assay [2] were 6.5 µM and 81.5 nM, respectively.
In assay [2], `CN1CCN(c2ccc(-c3ccc([N+](=O)[O-])cc3)cc2NC(=O)c2ccc(F)c([N+](=O)[O-])c2)CC1` had an IC50 of 1090 nM.
As for `Cc1c(F)c(N)cc(C(=O)Nc2cc(-c3ccc(NC(=O)CC(C)C)cc3)ccc2N2CCN(C)CC2)c1Cl`, the results for the IC50 in assay [1] and in assay [2] were 3.9 µM and 105 nM, respectively.
`COC(=O)c1ccc(-c2ccc(N3CCN(C)CC3)c(NC(=O)c3cc([N+](=O)[O-])c(F)c(C)c3Cl)c2)cc1` had an IC50 in assay [2] of 92.5 nM.
As to `CCCC(=O)Nc1ccc(-c2ccc(N3CCN(C)CC3)c(NC(=O)c3cc(N)c(F)c(C)c3Cl)c2)cc1`, the results for the IC50 in assay [1] and in assay [2] were 2.3 µM and 76 nM, respectively.
In assay [2], `Cc1c(F)c([N+](=O)[O-])cc(C(=O)Nc2cc(-c3ccncc3)ccc2N2CCN(C)CC2)c1Cl` had an IC50 of 77.1 nM.
For the molecule `Cc1c(F)c(N)cc(C(=O)Nc2cc(-c3ccc(NC(=O)C4CCCCC4)cc3)ccc2N2CCN(C)CC2)c1Cl`, the IC50 was determined as 3.8 µM in assay [1] and 341 nM in assay [2].
In assay [2], `CC(=O)Nc1cc(C(=O)Nc2cc(-c3ccc(N)cc3)ccc2N2CCN(C)CC2)c(Cl)c(C)c1F` came in with an IC50 of 3190 nM.
Same read-out and setting: the result for `CN1CCN(c2ccc(-c3ccncc3)cc2NC(=O)c2ccc(F)c(N)c2)CC1` reads 5800 nM.
Same read-out and setting: the result for `CC(=O)Nc1cc(C(=O)Nc2cc(-c3ccc([N+](=O)[O-])cc3)ccc2N2CCN(C)CC2)c(Cl)c(C)c1F` reads greater than 20000 nM; that for `Cc1c(F)ccc(C(=O)Nc2cc([N+](=O)[O-])ccc2N2CCN(c3ccccn3)CC2)c1Cl`, greater than 20000 nM.
The same measure, in the same setting: next, `Cc1c(F)c(N)cc(C(=O)Nc2cc(-c3ccncc3)ccc2N2CCN(C)CC2)c1Cl`: 18.2 nM; `CC(=O)Nc1cc(C(=O)Nc2cc(-c3ccncc3)ccc2N2CCN(C)CC2)c(Cl)c(C)c1F`: 1360 nM.
With `CN1CCN(c2ccc(-c3ccc(N)cc3)cc2NC(=O)c2cccc(N)c2)CC1`, the IC50 in assay [2] was greater than 20000 nM.
Turning to `Cc1c(F)c(N)cc(C(=O)Nc2cc(-c3ccc(NC(=O)CCN)cc3)ccc2N2CCN(C)CC2)c1Cl`, the IC50 is 25.1 µM in assay [1] and 50.2 nM in assay [2].
The matching figures for `Cc1c(F)c(N)cc(C(=O)Nc2cc(-c3ccc(NC(=O)CN)cc3)ccc2N2CCN(C)CC2)c1Cl`: 13.2 µM and 62.5 nM.
